According to PMC8414988 (Pediatric blood & cancer, 2021):

How the values were obtained:
[1] = Plasma pharmacokinetics, non-compartmental analysis; type: in vivo, human; conditions: for AUC(0-t) / Cmax / half-life: human, plasma, po
[2] = Exposure-toxicity associations; type: in vivo, human; conditions: course 1
[3] = human, in vivo, 28 days
[4] = cited from earlier work
[5] = cited from earlier work; remark: listed apart in the source
[6] = daily, 21 days followed by 7-day rest, adults; cited from earlier work

## CC(=O)c1c(C)c2cnc(Nc3ccc(N4CCNCC4)cn3)nc2n(C2CCCC2)c1=O [palbociclib]
[1]; 50 mg/m^2 oral, Day 1 (single dose), N=7
  Cmax (mean ± SD): 0.0693 ± 0.0437 µg/mL
[1]; 75 mg/m^2 oral, Day 21 (repeated doses), N=17
  AUC0-Tlast (mean ± SD): 2.219 ± 1.086 µg·h/mL
[1]; 50 mg/m2, AUC0-Tlast (median (range)), 50 mg/m^2 oral, Day 1 (single dose), N=7
  AUC(0-t): 1.16 µg·h/mL
[1]; 50 mg/m2, AUC0-Tlast (median (range)), 50 mg/m^2 oral, Day 21 (repeated doses), N=6
  AUC(0-t): 1.23 µg·h/mL
[1]; 50 mg/m2, Cmax (median (range)), 50 mg/m^2 oral, Day 1 (single dose), N=7
  Cmax: 0.0549 µg/mL
[1]; 50 mg/m2, Cmax (median (range)), 50 mg/m^2 oral, Day 21 (repeated doses), N=6
  Cmax: 0.0772 µg/mL
[1]; 50 mg/m2, Half-life (median (range)), 50 mg/m^2 oral, Day 1 (single dose), N=7
  half-life: 13 h
[1]; 50 mg/m2, Half-life (median (range)), 50 mg/m^2 oral, Day 21 (repeated doses), N=6
  half-life: 17.4 h
[1]; 75 mg/m2, AUC0-Tlast (median (range)), 75 mg/m^2 oral, Day 1 (single dose), N=21
  AUC(0-t): 1.83 µg·h/mL
[1]; 75 mg/m2, AUC0-Tlast (median (range)), 75 mg/m^2 oral, Day 21 (repeated doses), N=17
  AUC(0-t): 2.27 µg·h/mL
[1]; 75 mg/m2, Cmax (median (range)), 75 mg/m^2 oral, Day 1 (single dose), N=21
  Cmax: 0.094 µg/mL
[1]; 75 mg/m2, Half-life (median (range)), 75 mg/m^2 oral, Day 1 (single dose), N=21
  half-life: 13.3 h
[1]; 75 mg/m2, Half-life (median (range)), 75 mg/m^2 oral, Day 21 (repeated doses), N=17
  half-life: 14.4 h
[1]; 95 mg/m2, AUC0-Tlast (median (range)), 95 mg/m^2 oral, Day 1 (single dose), N=6
  AUC(0-t): 2.41 µg·h/mL
[1]; 95 mg/m2, AUC0-Tlast (median (range)), 95 mg/m^2 oral, Day 21 (repeated doses), N=2
  AUC(0-t): 2.19 µg·h/mL
[1]; 95 mg/m2, Half-life (median (range)), 95 mg/m^2 oral, Day 1 (single dose), N=6
  half-life: 14.6 h
[1]; 95 mg/m2, Half-life (median (range)), 95 mg/m^2 oral, Day 21 (repeated doses), N=2
  half-life: 11.3 h
[1]; within 50 and 95 mg/m^2, single and repeated doses
  dose dependence of mean Cmax and AUC0-Tlast: increased in proportional manner
[2]
  association of pharmacokinetic variables with thrombocytopenia or lymphopenia: No association was found
[3]
  Dose limiting toxicities observed: grade 4 neutropenia and grade 3 thrombocytopenia and dehydration
[4]
  solubility: pH-dependent solubility
[5]
  permeability: high permeability
[6]
  adult MTD: 125 mg
